A word on the GI50: it is the concentration giving 50% growth inhibition. Low readings indicate more potent growth inhibition, high ones less potent growth inhibition. Usually EC50 stands for the concentration needed to bring the measured effect to its halfway point. Read a high EC50 as weaker potency.

What all share (type): cell-based
The subject of assay [1] is HCT116 cells (colorectal carcinoma). Kind of assay: Inhibition of cancer cell proliferation, HCT116 (CellTiterGlo, 72 hours). The conditions noted are these: Homo sapiens, HCT-116. The method in brief: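 3000 cells per well exposed to 3-fold serial compound dilutions from 5,000 nM (two-fold solution, stock level) for 72 hours at 37° C. CellTiterGlo luminescence converted to cell number via a standard curve; percent inhibition vs untreated wells, GI50 by curve fit.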

The subject of assay [2] is HT-29 cells (colorectal adenocarcinoma). Kind of assay: Inhibition of cancer cell proliferation, HT-29 (CellTiterGlo, 72 hours). The conditions noted are these: Homo sapiens. In short, it runs like this:
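Proliferation over 72 h at 37° C was read by CellTiterGlo luminescence, translated to cell counts with a cell-density standard curve (390–50,000 cells). Compound added as 3-fold dilutions from a 5,000 nM two-fold stock to 3000 seeded HT-29 cells; GI50 from percent inhibition relative to untreated wells.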
For orientation: In ATP-based viability assays light output follows the ATP content of the culture.

Another assay relates to ERK1/ERK2. Kind of assay: Measurement of Erk occupancy with biotinylated covalent probe I-299 (HT-29). The conditions noted are these: HT-29 cells. The procedure: Measurement of Erk Occupancy with Biotinylated Covalent Probe
This experiment measured occupancy of the ERK1/ERK2 target by compounds according to the invention. This experiment was conducted using the Mesoscale Discovery test kit (Cat. # N45107B). One day before the assay, cells were split and added at 50,000 cells per well to a flat-bottom 96 well plate in 200 μl of growth medium. The next day, the medium was discarded, 100 μl medium containing test compound was added, and the plate was incubated at 37° C. for 120 minutes. The plate was rinsed once with PBS, and 50 μl lysis buffer with test compound was added. The plate was incubated at 4° C. for 30 min, and 30 μl of lysate was transferred to a plate to capture total and phosphor-Erk. Biotinylated probe 1-299 was diluted in lysis buffer and added to each well to a final concentration of 0.2 μM. The plate was incubated for 2 hr under constant shaking at room temperature. The plate was washed 3 times with MSD wash buffer. To detect the biotinylated probe bonding, tagged streptavidin was added (Mesoscale Discovery, Cat. # R32AD-1) at 1 μg/ml, 25 μl/well, followed by a 60 min incubation under shaking. The plate was washed 3 times, 150 μl MSD Read Buffer (Mesoscale Discovery, Cat. R61TX) was added and the plate was read in a plate reader manufactured by MSD. Percent occupancy by test compound at Erk was calculated by comparing the chemiluminescence readings from treated cells as compared to the chemiluminescence readings in untreated controls (which are defined as 100% probe bonding or 0% test compound occupancy). The amount of covalent probe signal divided by the amount of ERK signal for samples with no test compound treatment represents the maximum probe signal (MPS). In samples treated with test compound prior to covalent probe, the ratio of probe signal to ERK signal (the test probe signal, TPS) was reduced by the degree of target occupancy by the test compound which blocks covalent probe binding. The difference between the MPS and the TPS, divided by the MPS gave the target occupancy by the test compound. This ratio was then expressed as a percent occupancy. Results from this assay are provided in Table A below under the column “Occupancy EC50 (nM) HT-29.”

Take `C=CC(=O)Nc1cc(C)ccc1Nc1nc(Nc2cc(OC)nc(N(C)CCOC)c2)ncc1C(F)(F)F` [Compound I-336, N-(2-((2-((2-methoxy-6-((2-methoxyethyl)(methyl)amino)pyridin-4-yl)amino)-5-(trifluoromethyl)pyrimidin-4-yl)amino)-5-methylphenyl)acrylamide]: the GI50 was 0.101 to 0.5 µM in assay [1] and less than 0.1 µM in assay [2].
For `C=CC(=O)Nc1ccccc1Nc1nc(N[C@H]2CCN(C(=O)OC)C2)ncc1C(F)(F)F` [Compound I-59, (S)-methyl 3-((4-((2-Acrylamidophenyl)amino)-5-(trifluoromethyl)pyrimidin-2-yl)amino)pyrrolidine-1-carboxylate] the same measures were 0.501 to 0.999 µM and 0.101 to 0.5 µM.
For the compound `C=CC(=O)Nc1ccccc1Nc1nc(Nc2cc(OC)nc(N3CCS(=O)(=O)CC3)c2)ncc1C(F)(F)F` [Compound I-291, N-(2-((2-((2-(1,1-Dioxidothiomorpholino)-6-methoxypyridin-4-yl)amino)-5-(trifluoromethyl)pyrimidin-4-yl)amino)phenyl)acrylamide], the GI50 in assay [1] and in assay [2] was less than 0.1 µM throughout.
For the compound `C=CC(=O)Nc1cc(OC)ccc1Nc1nc(Nc2cc(OC)nc(N3CCN(C)CC3)c2)ncc1C(F)(F)F` [Compound I-334, N-(5-methoxy-2-((2-((2-methoxy-6-(4-methylpiperazin-1-yl)pyridin-4-yl)amino)-5-(trifluoromethyl)pyrimidin-4-yl)amino)phenyl)acrylamide], the GI50 in assay [1] and in assay [2] was less than 0.1 µM in each case.
With `C=CC(=O)Nc1cc(C)ccc1Nc1nc(N[C@H]2CCCN(C(=O)CO)C2)ncc1Cl` [Compound I-140, (S)—N-(2-((5-chloro-2-((1-(2-hydroxyacetyl)piperidin-3-yl)amino)pyrimidin-4-yl)amino)-5-methylphenyl)acrylamide], the GI50 in assay [1] and in assay [2] was less than 0.1 µM in each case.
Regarding `C=CC(=O)Nc1ccccc1Nc1nc(Nc2cc(OC)nc(N3CCCC3)c2)ncc1C(F)(F)F` [Compound I-281, N-(2-((2-((2-Methoxy-6-(pyrrolidin-1-yl)pyridin-4-yl)amino)-5-(trifluoromethyl)pyrimidin-4-yl)amino)phenyl)acrylamide], the GI50 in assay [1] and in assay [2] was less than 0.1 µM throughout.
For the compound `C=CC(=O)Nc1cc(C(F)(F)F)ccc1Nc1nc(Nc2cc(OC)ncc2C)ncc1C(F)(F)F` [Compound I-323, N-(2-((2-((2-methoxy-5-methylpyridin-4-yl)amino)-5-(trifluoromethyl)pyrimidin-4-yl)amino)-5-(trifluoromethyl)phenyl)acrylamide], the GI50 in assay [1] was in the range of 0.501 to 0.999 µM; in assay [2], 0.101 to 0.5 µM.
On to `C=CC(=O)Nc1ccccc1Nc1nc(Nc2cc(C(N)=O)ccc2C)ncc1C(F)(F)F` [Compound I-68, 3-(4-(2-Acrylamidophenylamino)-5-(trifluoromethyl)pyrimidin-2-ylamino)-4-methylbenzamide], for which the GI50 in assay [1] and in assay [2] was less than 0.1 µM throughout. Also, the EC50 in the assay with ERK1/ERK2 was less than 0.1 µM.
With `C=CC(=O)Nc1cc(OC)ccc1Nc1nc(N[C@H]2CCCN(C(=O)CO)C2)ncc1C(F)(F)F` [Compound I-64, (S)—N-(2-((2-((1-(2-Hydroxyacetyl)piperidin-3-yl)amino)-5-(trifluoromethyl)pyrimidin-4-yl)amino)-5-methoxyphenyl)acrylamide], the GI50 in assay [1] and in assay [2] was less than 0.1 µM in each case.
Consider `C=CC(=O)Nc1ccccc1Nc1nc(Nc2cc(Cl)nc(OC)c2)ncc1Cl` [Compound I-246, N-(2-((5-chloro-2-((2-chloro-6-methoxypyridin-4-yl)amino)pyrimidin-4-yl)amino)phenyl)acrylamide], for which the GI50 in assay [1] was 0.101 to 0.5 µM; in assay [2], less than 0.1 µM.
Take `C=CC(=O)Nc1cc(C)ccc1Nc1nc(Nc2cc(OC)nc(N(C)C3CC3)c2)ncc1C(F)(F)F` [Compound I-342, N-(2-((2-((2-(cyclopropyl(methyl)amino)-6-methoxypyridin-4-yl)amino)-5-(trifluoromethyl)pyrimidin-4-yl)amino)-5-methylphenyl)acrylamide]: the concentration for 50% growth inhibition (GI50) in assay [1] is 0.101 to 0.5 µM; in assay [2] it was less than 0.1 µM.
For the compound `C=CC(=O)Nc1cc(OC)ccc1Nc1nc(Nc2cc(OC)nc(N3CCN(CC)CC3)c2)ncc1C(F)(F)F` [Compound I-88, N-(2-((2-((2-(4-Ethylpiperazin-1-yl)-6-methoxypyridin-4-yl)amino)-5-(trifluoromethyl)pyrimidin-4-yl)amino)-5-methoxyphenyl)acrylamide], the GI50 in assay [1] and in assay [2] was less than 0.1 µM in each case.
Consider `C=CC(=O)Nc1cc(C)ccc1Nc1nc(Nc2cc(OC)nc(N3CCN(C)CC3)c2)ncc1C(F)(F)F` [Compound I-325, N-(2-((2-((2-methoxy-6-(4-methylpiperazin-1-yl)pyridin-4-yl)amino)-5-(trifluoromethyl)pyrimidin-4-yl)amino)-5-methylphenyl)acrylamide], for which the GI50 in assay [1] and in assay [2] was less than 0.1 µM in each case.
On to `C=CC(=O)Nc1cc(F)ccc1Nc1nc(Nc2cc(OC)ncc2C)ncc1C(F)(F)F` [Compound I-322, N-(5-fluoro-2-((2-((2-methoxy-5-methylpyridin-4-yl)amino)-5-(trifluoromethyl)pyrimidin-4-yl)amino)phenyl)acrylamide], for which the GI50 in assay [1] and in assay [2] was 0.101 to 0.5 µM each time.

These data come from patent publication US9561228B2 (Celgene Avilomics Research, Inc., priority 2013, dated 2017).
